According to US12319655B2, “RAF kinase inhibitors and methods of use thereof” (Deciphera Pharmaceuticals, LLC, priority 2021, dated 2025):
pIC50: −log10 of the molar value.

Legend:
[1] = molecular target: A-Raf kinase (SEQ. ID No: 1) (Homo sapiens (Human), UniProt P10398, Y301D/Y302D); test: Biochemical Assay for A-Raf (1); conditions: Table J, assay version (1); read-out: ARAF (1) IC50
Outline: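 IC50 values were derived by four-parameter sigmoidal fitting of percent inhibition, calculated from reaction rates over the 4–5 h window. Absorbance at 340 nm was tracked for 6 h at 30 °C via coupled PK/LDH NADH depletion. Conditions: 1 mM ATP, 30.1 nM MEK substrate, 5.55 nM A-Raf (Y301D/Y302D), Tris pH 7.5, 1% DMSO.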

[2] = molecular target: B-Raf kinase (SEQ. ID NO: 2) (Homo sapiens (Human), UniProt P15056); test: Biochemical Assay for B-Raf (1); conditions: Table J, assay version (1); read-out: BRAF (1) IC50
Outline: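 IC50 derived by four-parameter sigmoidal fit of percent inhibition, normalised to uninhibited and reference-inhibitor controls, using reaction rates over 4–5 h. Coupled spectrophotometric readout (NADH loss at 340 nm, 6 h, 30° C.); 1 mM ATP, 30.1 nM MEK, 0.13 nM B-Raf, pH 7.5 Tris buffer, 1% DMSO.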

Miapaca-2 cells = test: MiaPaca-2 Cell Proliferation Assay (1); format: cell-based; conditions: Homo sapiens, MIA PaCa-2, single agent, read-out: MiaPaca2 (1) IC50
Outline: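 Resazurin was added after compound exposure and incubated 5-6 h, then fluorescence read at 540 nm excitation and 600 nm emission to give IC50.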

H2405 cells = test: H2405 Cell Proliferation Assay (1); format: cell-based; conditions: Homo sapiens, NCI-H2405
Outline: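 Viability was read by resazurin reduction (ex 540 nm, em 600 nm; 5-6 h with 40 μL of 440 μM stock) after 67-72 h compound exposure at 37 °C.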

Chain of A-Raf kinase (SEQ. ID No: 1) (P10398 other isoform, or with tags, fused parts or gaps Y301D (already in the parent)/Y302D (already in the parent)): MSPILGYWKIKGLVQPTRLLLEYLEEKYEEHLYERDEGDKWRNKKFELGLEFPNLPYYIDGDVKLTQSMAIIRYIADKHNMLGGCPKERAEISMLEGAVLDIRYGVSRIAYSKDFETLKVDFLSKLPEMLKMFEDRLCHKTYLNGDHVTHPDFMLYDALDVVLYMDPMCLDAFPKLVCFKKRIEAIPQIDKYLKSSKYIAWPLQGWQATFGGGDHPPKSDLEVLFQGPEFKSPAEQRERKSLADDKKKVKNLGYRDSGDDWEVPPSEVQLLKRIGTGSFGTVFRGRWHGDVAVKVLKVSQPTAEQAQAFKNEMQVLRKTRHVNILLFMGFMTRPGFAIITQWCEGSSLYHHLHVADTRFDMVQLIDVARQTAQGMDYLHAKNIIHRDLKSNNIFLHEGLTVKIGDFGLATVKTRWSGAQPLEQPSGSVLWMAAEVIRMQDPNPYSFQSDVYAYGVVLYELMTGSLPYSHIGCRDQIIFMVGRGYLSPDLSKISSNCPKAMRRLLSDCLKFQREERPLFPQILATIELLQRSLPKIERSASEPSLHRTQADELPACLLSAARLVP
Chain of B-Raf kinase (SEQ. ID NO: 2) (P15056 416-766): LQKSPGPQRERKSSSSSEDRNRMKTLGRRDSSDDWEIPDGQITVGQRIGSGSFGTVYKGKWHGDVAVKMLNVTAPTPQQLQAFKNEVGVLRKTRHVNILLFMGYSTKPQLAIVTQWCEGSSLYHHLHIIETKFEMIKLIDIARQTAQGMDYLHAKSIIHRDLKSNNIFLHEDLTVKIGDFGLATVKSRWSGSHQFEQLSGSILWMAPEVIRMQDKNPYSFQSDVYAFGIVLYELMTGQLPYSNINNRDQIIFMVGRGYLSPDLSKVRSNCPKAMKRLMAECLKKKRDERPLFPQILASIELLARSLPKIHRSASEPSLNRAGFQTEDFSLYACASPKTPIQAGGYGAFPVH

Compound	pIC50 [1]	pIC50 [2]	pIC50 (Miapaca-2 cells)	pIC50 (H2405 cells)
COC(C)(C)c1cc(C(=O)Nc2cnc(C)c(-c3cccc(-c4cc(NC(=O)C5CC5)ncn4)c3)c2)ccn1 [Example 274]	5.00 to 6.00	≥ 7.00	5.00 to 6.00	≥ 7.00
Cc1ncc(NC(=O)c2cnnc(C3CC3)c2)cc1-c1ccnc(-c2ccnc(NC(=O)C3CC3)c2)n1 [Example 278]	5.00 to 6.00	≥ 7.00	5.00 to 6.00	5.00 to 6.00
Cc1ncc(NC(=O)c2cnn(C(C)(C)C)c2)cc1-c1cccc(-c2cc(NC(=O)C3CC3)ncn2)c1 [Example 279]	5.00 to 6.00	≥ 7.00	5.00 to 6.00	6.30 to 7.00
